The values that follow come from patent US20080207671A1, “Diagnosis and treatment of diseases arising from defects in the tuberous sclerosis pathway” (The Regents of the University of Michigan, priority 2006, published 2008).

Data set [1] addresses TSC2 fragment containing S1345 (UniProt P49816).
For data set [2], the target named is TSC2-F2 fragment (UniProt P49816).
Data set [3] relates to TSC2. Description: TSC2/TSC1 phosphorylation in transfected HEK293 cells (mobility shift, 32P labelling, two-dimensional phosphopeptide mapping). Format: cell-based, human. Particulars: 10 μM, added 30 minutes before 2-DG, HEK293. How it is done: (§1) HEK293 cells were seeded and maintained in Dulbecco's modified Eagle's medium (DMEM) containing 10% fetal bovine serum (FBS). Transfection was performed in serum-free conditions using Lipofectamine reagent (Invitrogen, Carlsbad, Calif.) in accordance with the manufacturer's instructions. In brief, 4 h after transfection, the cells were recovered in DMEM containing 10% FBS for 16 h and then starved for 16-24 h. Cells were then lysed in lysis buffer (10 mM Tris-HCl at pH 7.5, 100 mM sodium chloride, 1% NP-40, 1% Triton X-100, 50 mM sodium fluoride, 2 mM EDTA, 1 mM phenyl methylsulphonyl fluoride, 10 μg ml^−1 leupeptin and 10 μg ml^−1 aprotinine) and immunoprecipitated with the indicated antibodies and protein G-Sepharose beads. Immunocomplexes were analyzed by SDS-polyacrylamide gel electrophoresis (PAGE).
HEK293 cells were cotransfected with HA-tagged TSC2, Myc-tagged TSC1 and the indicated plasmids. Cells were phosphate- and serum-starved for 4 h before incubation with 0.25 mCi ml^−1 32P-orthophosphate (ICN) for 4 h.
Cells were washed once with ice-cold PBS and lysed. HA-tagged TSC2 was immunoprecipitated, resolved by SDS-PAGE and transferred to a PVDF membrane. Phosphorylated TSC2 was visualized by autoradiography and phosphopeptide mapping was then performed. In brief, the phosphorylated TSC2 bands were excised, fixed in methanol and incubated in 500 μl of 0.5% polyvinylpyrrolidone-40 dissolved in 100 mM acetic acid for 30 min at 37° C. The sample were then digested with 20 μg of TPCK-treated trypsin (Sigma) at 37° C. in 75 mM ammonium bicarbonate buffer at pH 8.0 containing 5% acetonitrile. After digestion, samples were dried under vacuum and suspended in 10 μl of water. Samples were spotted onto a cellulose plate and first dimensional electrophoresis was performed using 1% ammonium bicarbonate buffer at pH 8.9. The plates were separated by chromatography in the second dimension in chromatography buffer (n-butanol:pyridine:acetic acid:water; 20:24:6:30). The plates were dried and phosphopeptides were visualized by autoradiography.

In data set [4] the test system is phosphorylation of S6K, S6, 4EBP1 and mTOR. Nature of the data set: Immunoblot of S6K, S6, 4EBP1 and mTOR phosphorylation in HEK293 cells under energy depletion. Format: cell-based, human. Particulars: for phosphorylation of S6K and 4EBP1: depletion of cellular ATP. As for the experimental part:
as §1
A general note: In western blotting, separated proteins are transferred to a membrane and probed.

Data set [5] has as its system Akt phosphorylation. Description: Immunoblot of Akt phosphorylation in HEK293 cells. Format: cell-based, human. Particulars: AMPK inhibitor treatment. As for the experimental part:
as §1

Data set [6] relates to EEF4 (TSC2+/+) cells. Nature of the data set: S6K and 4EBP1 phosphorylation in EEF4 (TSC2+/+) fibroblasts. Format: cell-based.
In data set [7] the test system is LEF (TSC2−/− epithelial) cells. Description: Cell death / apoptosis of LEF cells (vector, TSC2, TSC2-3A). It counts as cell-based. Particulars: vector and wild type TSC2 expressing LEF cells. How it is done: FIGS. 16a-16f show TSC2 plays roles in protecting cells from glucose depletion-induced apoptosis. […] LEF cells stably expressing vector, TSC2, or TSC2-3A were cultured in 25 mM glucose (G+) or glucose free medium (G−) with or without 20 nM rapamycin. Pictures were taken at 72 hours in culture. Note that the TSC2 wild type expressing cells are morphologically smaller. […] LEF cells stably expressing vector, TSC2 or TSC2-3A were cultured in glucose free medium with or without 20 nM rapamycin for 48 hours. Western blots with anti-cleaved-caspase-3 and actin are shown. […] EEF cells were cultured in glucose free medium with or without 20 nM rapamycin for 96 hours. […] The EEF4 and EEF8 cells were cultured in glucose free medium with or without 20 nM rapamycin for 72 hours. Western blots with cleaved-caspase-3 and actin are shown. […] The MEFs were cultured in glucose free medium for 48 hours. […] MEFs were cultured in glucose free medium with or without 20 nM rapamycin for 16 hours. Western blots with cleaved-caspase-3 and actin are shown.

The test system of data set [8] is S6K-dC104. Nature of the data set: Phosphorylation and kinase activity of rapamycin-resistant S6K mutants (S6K-dC104, S6K-dNC). Format: cell-based. How it is done:
as §1
For the S6K assays, HEK293 cells grown in six-well plates were transfected with 10-20 ng HA-S6K constructs, with or without various plasmids, as indicated in the figures. HA-S6K was immunoprecipitated from serum-starved cells with an anti-HA antibody and analyzed by in vitro kinase assay using purified GST-S6 as a substrate (Pearson et al., EMBO J. 14:5279-5287 (1995)).

For data set [9], the system named is db/db mice. It counts as in vivo. The conditions noted are these: 16 weeks treatment. As for the experimental part: m+/+ Lepr db (db/+) mice were obtained from The Charles River Japan and mated, +Lepr db/+ Lepr db mice (db/db) mice were generated.
Mice were randomly divided into four groups as follows: nondiabetic db/+; nondiabetic db/+ treated with Rapamycin; diabetic db/db: and diabetic db/db treated with Rapamycin (2.0 mg/kg body weight, 3 days/week). Rapamycin was injected intraperitoneally (i.p.) from the age of 8 weeks to 25 weeks or 16 weeks to 25 weeks. Blood glucose levels and body weight were determined weekly in all animals. Mice were housed in a 12 hr light/dark cycle and temperature-controlled environment. […]
At age 25 weeks, kidney was isolated from db/db and db/+ mice (n=10 for each group), and total RNA was purified. The expression of fibronectin and α3-type IV collagen mRNA by real-time reverse transcriptase-polymerase chain reaction (RT-PCR), which was performed in an ABI 7700 sequence detector (Applied Biosystems), was quantified. […] For quantitative RT-PCR of UCP-1, BAT (brown adipose tissue) was isolated from 2 weeks rapamycin treated or untreated mice, primers used were described previously (see, e.g., Um S H, et al., Nature 431, 200-205, 2004; herein incorporated by reference in its entirety). Data were normalized to GAPDH and analyzed by the comparative threshold cycle method. […]
Data were expressed as the means±SEM. […]

In data set [10] the test system is db/db mice. Nature of the data set: Diabetic nephropathy in db/db mice: glomerular morphometry, gene expression, urinary albumin. It counts as in vivo. The conditions noted are these: rapamycin for 8 weeks from 16 weeks of age. How it is done:
Mice were randomly divided into four groups as follows: nondiabetic db/+; nondiabetic db/+ treated with Rapamycin; diabetic db/db: and diabetic db/db treated with Rapamycin (2.0 mg/kg body weight, 3 days/week). Rapamycin was injected intraperitoneally (i.p.) from the age of 8 weeks to 25 weeks or 16 weeks to 25 weeks. Blood glucose levels and body weight were determined weekly in all animals. Mice were housed in a 12 hr light/dark cycle and temperature-controlled environment. Animal care and all experiments were conducted in accordance with the institutional guidelines of the Kyushu University Graduate School of Medicine.
Seventeen weeks after treatment with rapamycin (25 week of age), mice were deeply anesthetized, after perfusion with ice-cold PBS, the kidneys were perfused with 4% paraformaldehyde. […] To quantify mesangial expansion, sections were coded and read. […] The extent of increase in mesangial matrix (defined as mesangial area) was determined by the presence of PAS-positive and nuclei-free area in the mesangium; the glomerular surface area has been measured using standard measurements of glomerular tuft areas using a the computer program of Axiovision Auto Mesure.
At age 25 weeks, kidney was isolated from db/db and db/+ mice (n=10 for each group), and total RNA was purified. […] Data were normalized to GAPDH and analyzed by the comparative threshold cycle method. […]

Data set [11] addresses GST-TSC2 fragment 2 (amino acids 1357-1765) (UniProt P49816).
Data set [12] concerns the target GST-TSC2 fragment 1 (amino acids 910-1112) (UniProt P49816).
In data set [13] the test system is AMPK. The conditions noted are these: Corton et al.; cited from earlier work.
Data set [14] concerns eukaryotic elongation factor 2 (eEF2). Particulars: Horman et al.; cited from earlier work.
Data set [15] relates to S6K and 4EBP1. Particulars: Kimura et al.; Krause et al.; cited from earlier work.

Entries after “also recorded” stand apart in the source; their conditions may differ.

As to “immunoprecipitated AMPK (in vitro kinase assay)”, the “in vitro phosphorylation by immunoprecipitated AMPK” value was “The TSC2 fragment was phosphorylated by immunoprecipitated AMPK, but not the kinase inactive AMPK mutant” in data set [1] and “In vitro phosphorylation of the purified TSC2-F2 fragment by immunoprecipitated AMPK showed that AMPK specifically phosphorylates TSC2 on T1227” in data set [2].

`c1cc(-c2cnn3cc(-c4ccc(OCCN5CCCCC5)cc4)cnc23)ccn1` [Compound C]: the entries for the “mobility of TSC2 / 2-DG induced mobility shift” value in [3] and in data set [3] (listed as compound C) were “blocks the 2-DG induced mobility shift of TSC2” and “increased the mobility of TSC2”, respectively. Further, the “effect on 2-DG induced dephosphorylation of S6K” value in data set [4] (HEK 293, with 2-DG, listed as AMPK inhibitor) is “significantly reversed the inhibitory effect of 2-DG on S6K phosphorylation; also recorded: blocks the 2-DG induced dephosphorylation of S6K”. In addition, the “S6K dephosphorylation induced by glucose deprivation” value in [4] (glucose deprivation, listed as AMPK inhibitor) is “significantly blocked; also recorded: partially blocks”. Moreover, in data set [5], the Akt phosphorylation result is listed as “had no effect”.

As for `CC(=O)c1c(O)c(C)c(O)c(Cc2c(O)c3c(c(C(=O)/C=C/c4ccccc4)c2O)OC(C)(C)C=C3)c1O` [Rottlerin], the S6K phosphorylation result in [6] is reported as “caused a decrease in S6K phosphorylation”. In [4], the “phosphorylation of S6K and 4EBP1” value was “caused a dephosphorylation of S6K and 4EBP1”.

On to `COc1cc([C@@H]2c3cc4c(cc3[C@@H](O[C@@H]3O[C@@H]5CO[C@@H](C)O[C@H]5[C@H](O)[C@H]3O)[C@H]3COC(=O)[C@H]23)OCO4)cc(OC)c1O` [Etoposide], for which the cell death entry in data set [7] is “caused cell death in both vector and wild type TSC2 expressing cells”.

Take `OC[C@@H](O)[C@@H](O)[C@H](O)[C@H](O)CO` [mannitol]: in data set [4] (25 mM), the “phosphorylation of S6K on T389” value is on record as “had little effect”. For the same compound, in data set [4] (100 mM), the “phosphorylation of S6K” value is recorded as “significantly inhibited”.

For `CO[C@H]1C[C@@H]2CC[C@@H](C)[C@@](O)(O2)C(=O)C(=O)N2CCCC[C@H]2C(=O)O[C@H]([C@H](C)C[C@@H]2CC[C@@H](O)[C@H](OC)C2)CC(=O)[C@H](C)/C=C(\C)[C@@H](O)[C@@H](OC)C(=O)[C@H](C)C[C@H](C)/C=C/C=C/C=C/1C` [rapamycin], in data set [8], the “phosphorylation of Thr 389 in S6K-dC104” value is listed as “not inhibited”. Moreover, in data set [9], the “increase in oxygen consumption versus db/db untreated mice” value is listed as 3.27 folds. Further, the “amount of albumin excreted relative to the starting point (16w; db/db)” value in data set [10] turned out to be 60%.

Consider GST-Akt, for which the “in vitro phosphorylation by purified Akt” value was “Wild-type Akt, but not the kinase-inactive Akt-KM mutant, efficiently phosphorylated both fragment 1 and fragment 2 of TSC2 in vitro” in data set [11]; “Wild-type Akt, but not the kinase-inactive Akt-KM mutant, efficiently phosphorylated both fragment 1 and fragment 2 of TSC2 in vitro” in data set [12].

Take `N#CC(C#N)=NNc1ccc(OC(F)(F)F)cc1` [FCCP]: the S6K phosphorylation entry in data set [6] is listed as “caused a decrease in S6K phosphorylation”. In addition, the “phosphorylation of S6K and 4EBP1” value in data set [4] is “caused a dephosphorylation of S6K and 4EBP1”.

In the case of `NC(=O)c1ncn([C@@H]2O[C@H](COP(=O)(O)O)[C@@H](O)[C@H]2O)c1N` [AICAR, 5-aminoimidazole-4-carboxyamide ribonucleotide], in [13], the AMPK activation entry is “activate AMPK”. Besides, the “phosphorylation of eEF2” value in [14] was “increase phosphorylation”. Moreover, the S6K activity entry in data set [15] is given as “inhibit S6K activity”.
